Data as given in US10202360B2 (CELGENE QUANTICEL RESEARCH, INC., priority 2016, dated 2019).

Target: CREBBP (Homo sapiens (Human), UniProt Q92793)
Assay: In vitro enzyme inhibition assay - CREBBP inhibition (AlphaScreen, biotinylated H4-tetraacetyl peptide)
Assay type: binding
Conditions: Table 28; AlphaScreen, H4-tetraacetyl peptide
Summary of the method: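 Displacement of 20 nM biotinylated tetraacetyl-H4 peptide from 50 nM E. coli-expressed His-CREBBP, measured by AlphaScreen after bead equilibration for 2 h.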

CREBBP, sequence (Q92793 1081-1197): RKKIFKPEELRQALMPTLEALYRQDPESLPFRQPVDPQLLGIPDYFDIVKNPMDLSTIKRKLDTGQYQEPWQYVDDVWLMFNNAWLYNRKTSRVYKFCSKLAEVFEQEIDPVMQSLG

CCCCS(=O)(=O)Nc1cc(-c2ccc(=O)n(C)c2)nc(Oc2c(F)cccc2F)n1 [Example 342, N-(2-(2,6-difluorophenoxy)-6-(1-methyl-6-oxo-1,6-dihydropyridin-3-yl)pyrimidin-4-yl)butane-1-sulfonamide]
IC50: < 500 nM

Cc1cccc(C#N)c1Oc1nc(NCc2cccnc2)cc(-c2ccc(=O)n(C)c2)n1 [Example 323, 3-Methyl-2-{4-(1-methyl-6-oxo-1,6-dihydro-pyridin-3-yl)-6-[(pyridin-3-ylmethyl)-amino]-pyrimidin-2-yloxy}-benzonitrile]
IC50: < 500 nM

Cc1cc(-c2cc(NS(=O)(=O)C(C)C)nc(Oc3cc(Cl)ccc3Cl)n2)cn(C)c1=O [Example 1, Propane-2-sulfonic acid [2-(2,5-dichloro-phenoxy)-6-(1,5-dimethyl-6-oxo-1,6-dihydro-pyridin-3-yl)-pyrimidin-4-yl]-amide]
IC50: < 500 nM

Cc1cc(-c2cc(NS(=O)(=O)C(C)(C)C)nc(Oc3ccc(F)cc3F)n2)cn(C)c1=O [Example 65, N-(2-(2,4-difluorophenoxy)-6-(1,5-dimethyl-6-oxo-1,6-dihydropyridin-3-yl)pyrimidin-4-yl)-2-methylpropane-2-sulfonamide]
IC50: < 500 nM

CCc1cccc(Cl)c1Oc1nc(NS(=O)(=O)C(C)C)cc(-c2cc(C)c(=O)n(C)c2)n1 [Example 43, Propane-2-sulfonic acid [2-(2-chloro-6-ethyl-phenoxy)-6-(1,5-dimethyl-6-oxo-1,6-dihydro-pyridin-3-yl)-pyrimidin-4-yl]-amide]
IC50: < 500 nM

Cc1cccc(F)c1Oc1nc(N)cc(-c2ccc(=O)n(C)c2)n1 [Example 332, 5-[6-Amino-2-(2-fluoro-6-methyl-phenoxy)-pyrimidin-4-yl]-1-methyl-1H-pyridin-2-one]
IC50: < 500 nM

CC(C)Oc1nc(NS(=O)(=O)c2ccccc2)cc(-c2ccc(=O)n(C)c2)n1 [Example 355, N-(2-isopropoxy-6-(1-methyl-6-oxo-1,6-dihydropyridin-3-yl)pyrimidin-4-yl)benzenesulfonamide]
IC50: < 500 nM

CCC[C@H](C)S(=O)(=O)Nc1cc(-c2ccc(=O)n(C)c2)nc(Oc2c(Cl)ccc(C)c2F)n1 [Example 227, (2S)-Pentane-2-sulfonic acid [2-(6-chloro-2-fluoro-3-methyl-phenoxy)-6-(1-methyl-6-oxo-1,6-dihydro-pyridin-3-yl)-pyrimidin-4-yl]-amide]
IC50: < 500 nM

CCC[C@H](C)S(=O)(=O)Nc1cc(-c2ccc(=O)n(C)c2)nc(Oc2c(F)ccc(C)c2Cl)n1 [Example 228, (2S)-Pentane-2-sulfonic acid [2-(2-chloro-6-fluoro-3-methyl-phenoxy)-6-(1-methyl-6-oxo-1,6-dihydro-pyridin-3-yl)-pyrimidin-4-yl]-amide]
IC50: < 500 nM

CC[C@H](C)S(=O)(=O)Nc1cc(-c2ccc(=O)n(C)c2)nc(Oc2c(C)cccc2F)n1 [Example 202, (S)-N-(2-(2-fluoro-6-methylphenoxy)-6-(1-methyl-6-oxo-1,6-dihydropyridin-3-yl)pyrimidin-4-yl)butane-2-sulfonamide]
IC50: < 500 nM

CCCCS(=O)(=O)Nc1nc(Oc2c(F)cccc2Cl)nc(-c2ccc(=O)n(C)c2)n1 [Example 182, Butane-1-sulfonic acid [4-(2-chloro-6-fluoro-phenoxy)-6-(1-methyl-6-oxo-1,6-dihydro-pyridin-3-yl)-[1,3,5]triazin-2-yl]-amide]
IC50: < 500 nM

CCS(=O)(=O)Nc1cc(-c2cc(C)c(=O)n(C)c2)nc(OC(C)c2ccccc2)n1 (centres unmarked) [Example 147, Ethanesulfonic acid [6-(1,5-dimethyl-6-oxo-1,6-dihydro-pyridin-3-yl)-2-(1-phenyl-ethoxy)-pyrimidin-4-yl]-amide]
IC50: < 500 nM

Cc1cc(-c2cc(NS(=O)(=O)C(C)C)cc(Oc3ccc(F)cc3F)n2)cn(C)c1=O [Example 90, N-(6-(2,4-difluorophenoxy)-1′,5′-dimethyl-6′-oxo-1′,6′-dihydro-[2,3′-bipyridin]-4-yl)propane-2-sulfonamide]
IC50: < 500 nM

Cc1cccc(F)c1Oc1nc(NS(=O)(=O)C2CCCC2)nc(-c2cc(C)c(=O)n(C)c2)n1 [Example 184, Cyclopentanesulfonic acid [4-(1,5-dimethyl-6-oxo-1,6-dihydro-pyridin-3-yl)-6-(2-fluoro-6-methyl-phenoxy)-[1,3,5]triazin-2-yl]-amide]
IC50: < 500 nM

CCCCS(=O)(=O)Nc1cc(-c2ccc(=O)n(C)c2)nc(Oc2c(C)cccc2Cl)n1 [Example 102, Butane-1-sulfonic acid [2-(2-chloro-6-methyl-phenoxy)-6-(1-methyl-6-oxo-1,6-dihydro-pyridin-3-yl)-pyrimidin-4-yl]-amide]
IC50: < 500 nM

Cc1c(NS(=O)(=O)C(C)C)nc(Oc2ccc(F)cc2F)nc1-c1cc(C)c(=O)n(C)c1 [Example 165, Propane-2-sulfonic acid [2-(2,4-difluoro-phenoxy)-6-(1,5-dimethyl-6-oxo-1,6-dihydro-pyridin-3-yl)-5-methyl-pyrimidin-4-yl]-amide]
IC50: < 500 nM

CC[C@@H](C)S(=O)(=O)Nc1cc(-c2ccc(=O)n(C)c2)nc(Oc2c(C)cccc2F)n1 [Example 203, (R)-N-(2-(2-fluoro-6-methylphenoxy)-6-(1-methyl-6-oxo-1,6-dihydropyridin-3-yl)pyrimidin-4-yl)butane-2-sulfonamide]
IC50: < 500 nM

CCCCNc1cc(-c2ccc(=O)n(C)c2)nc(Oc2c(C)cccc2Cl)n1 [Example 312, 5-[6-Butylamino-2-(2-chloro-6-methyl-phenoxy)-pyrimidin-4-yl]-1-methyl-1H-pyridin-2-one]
IC50: < 500 nM

CC[C@@H](C)S(=O)(=O)Nc1cc(-c2ccc(=O)n(C)c2)nc(Oc2c(C)cccc2Cl)n1 [Example 204, Butane-(2R)-sulfonic acid [2-(2-chloro-6-methyl-phenoxy)-6-(1-methyl-6-oxo-1,6-dihydro-pyridin-3-yl)-pyrimidin-4-yl]-amide]
IC50: < 500 nM

Cc1cccc(F)c1Oc1nc(NCc2ccccc2)cc(-c2ccc(=O)n(C)c2)n1 [Example 292, 5-[6-Benzylamino-2-(2-fluoro-6-methyl-phenoxy)-pyrimidin-4-yl]-1-methyl-1H-pyridin-2-one]
IC50: < 500 nM

Cc1cccc(F)c1Oc1nc(NC2CCCC2)cc(-c2ccc(=O)n(C)c2)n1 [Example 285, 5-(6-(cyclopentylamino)-2-(2-fluoro-6-methylphenoxy)pyrimidin-4-yl)-1-methylpyridin-2(1H)-one]
IC50: < 500 nM

Cc1cccc(Cl)c1Oc1nc(NS(=O)(=O)CC2CC2)cc(-c2ccc(=O)n(C)c2)n1 [Example 264, N-[2-(2-Chloro-6-methyl-phenoxy)-6-(1-methyl-6-moxo-1,6-dihydro-pyridin-3-yl)-pyrimidin-4-yl]-C-cyclopropyl-methanesulfonamide]
IC50: < 500 nM

CCCn1cc(-c2cc(NS(=O)(=O)C(C)C)nc(Oc3ccc(F)cc3F)n2)cc(C)c1=O [Example 45, Propane-2-sulfonic acid [2-(2,4-difluoro-phenoxy)-6-(5-methyl-6-oxo-1-propyl-1,6-dihydro-pyridin-3-yl)-pyrimidin-4-yl]-amide]
IC50: 500 to 5000 nM

CCCCS(=O)(=O)Nc1cc(-c2ccc(=O)n(C)c2)nc(Oc2c(C)cccc2C#N)n1 [Example 108, Butane-1-sulfonic acid [2-(2-cyano-6-methyl-phenoxy)-6-(1-methyl-6-oxo-1,6-dihydro-pyridin-3-yl)-pyrimidin-4-yl]-amide]
IC50: < 500 nM

Cc1cc(F)ccc1Oc1nc(NS(=O)(=O)C(C)C)cc(-c2cc(C)c(=O)n(C)c2)n1 [Example 67, N-(6-(1,5-dimethyl-6-oxo-1,6-dihydropyridin-3-yl)-2-(4-fluoro-2-methylphenoxy)pyrimidin-4-yl)propane-2-sulfonamide]
IC50: < 500 nM

CCCS(=O)(=O)Nc1cc(-c2cc(C)c(=O)n(C)c2)nc(Oc2c(C)cc(F)cc2Cl)n1 [Example 99, Propane-1-sulfonic acid [2-(2-chloro-4-fluoro-6-methyl-phenoxy)-6-(1,5-dimethyl-6-oxo-1,6-dihydro-pyridin-3-yl)-pyrimidin-4-yl]-amide]
IC50: < 500 nM

CCCS(=O)(=O)Nc1cc(-c2cc(C)c(=O)n(C3COC3)c2)nc(Oc2c(C)cccc2C)n1 [Example 55, Propane-1-sulfonic acid [2-(2,6-dimethyl-phenoxy)-6-(5-methyl-1-oxetan-3-yl-6-oxo-1,6-dihydro-pyridin-3-yl)-pyrimidin-4-yl]-amide]
IC50: 500 to 5000 nM

Cn1cc(-c2cc3nc(n2)Oc2cc(ccc2F)OCC=CCCCS(=O)(=O)N3)ccc1=O [Example 362, 5-(36-fluoro-11,11-dioxido-2,4-dioxa-11-thia-12-aza-1(2,4)-pyrimidina-3(1,3)-benzenacyclododecaphan-6-en-1^6-yl)-1-methylpyridin-2(1H)-one]
IC50: < 500 nM

CC[C@H](C)S(=O)(=O)Nc1cc(-c2ccc(=O)n(C)c2)nc(Oc2c(C)cccc2Cl)n1 [Example 205, Butane-(2S)-sulfonic acid [2-(2-chloro-6-mehtyl-phenoxy)-6-(1-methyl-6-oxo-1,6-dihydro-pyridin-3-yl)-pyrimidin-4-yl]-amide]
IC50: < 500 nM

Cc1ccc(F)c(Oc2nc(NS(=O)(=O)C(C)C)cc(-c3ccc(=O)n(C)c3)n2)c1Cl [Example 256, Propane-2-sulfonic acid [2-(2-chloro-6-fluoro-3-methyl-phenoxy)-6-(1-methyl-6-oxo-1,6-dihydro-pyridin-3-yl)-pyrimidin-4-yl]-amide]
IC50: < 500 nM

Cn1cc(-c2cc3nc(n2)Oc2cc(ccc2Cl)OCC=CCCCS(=O)(=O)N3)ccc1=O [Example 361, 5-(36-chloro-11,11-dioxido-2,4-dioxa-11-thia-12-aza-1(2,4)-pyrimidina-3(1,3)-benzenacyclododecaphan-6-en-1^6-yl)-1-methylpyridin-2(1H)-one]
IC50: < 500 nM

CCn1nc(C)c(Oc2nc(NS(=O)(=O)C(C)C)cc(-c3cc(C)c(=O)n(C)c3)n2)c1C [Example 127, Propane-2-sulfonic acid [6-(1,5-dimethyl-6-oxo-1,6-dihydro-pyridin-3-yl)-2-(1-ethyl-3,5-dimethyl-1H-pyrazol-4-yloxy)-pyrimidin-4-yl]-amide]
IC50: < 500 nM
